Patent US20050113443A1, “Modulation of airway inflammation in patients with cystic fibrosis and related diseases” (priority 2003, published 2005)

Tests used:
[1] = system: primary human bronchial epithelial cells; test: P. aeruginosa-induced IL-8 secretion by primary human bronchial epithelial cells (ELISA); type: cell-based; conditions: cells treated 2 h with analogue (nanomolar concentrations), stimulated 1 h with 3×10^7 cfu P. aeruginosa PA01, supernatants after 4 more hours, vs vehicle (0.01% ethanol), FIG. 2, P<0.002
Experimental: We further examined whether LX analogues were able to inhibit P. aeruginosa-induced IL 8 production from primary human bronchial epithelial cells. Primary bronchial epithelial cells from non-smokers obtained from Clonetics/Cambrex were grown until subconfluent, treated for 2 h with LXA4 analogue or vehicle control (0.01% ethanol), stimulated for 1 h with 3×10^7 cfu of P. aeruginosa strain PA01, and subsequently washed. Cell-free supernatants were harvested after 4 more hours of incubation, and analyzed by ELISA for IL-8 secretion. For this purpose we used the metabolically stable analog 15-epi-16-(p-fluorophenoxy) LXA4 methyl ester, prepared according to Example 2. […] Primary human bronchial epithelial cells were pretreated with an LXA4 analogue (15-epi-16-[p-fluorophenoxy LXA4] methyl ester) or vehicle control and subsequently stimulated with P. aeruginosa strain PA01. IL-8 was measured in cell-free supernatants. Mean IL-8 production was 1620±116 pg/ml in vehicle control cultures.

[2] = system: C57BL/6 mice challenged intratracheally with mucoid P. aeruginosa (strain M57-15); test: Mouse model of chronic airway inflammation and infection of cystic fibrosis (mucoid P. aeruginosa entrapped in agarose beads); type: in vivo; conditions: vs vehicle controls
Description: Chronic infections with mucoid P. aeruginosa tend to persist in patients with CF. In turn, chronic airway infection with mucoid P. aeruginosa is a major cause of morbidity and mortality among CF patients. In order to achieve chronic airway infections with P. aeruginosa in murine models, it is necessary to enmesh the bacteria with an immobilizing agent such as agar (Pediatr Pulmonol 30:413.; Lab Animals 36:291). This also provides an experimental mimic of the growth of P. aeruginosa as a biofilm, which appears to be its predominant state in the CF airway (Pediatr Pulmonol 30:413, 2000; Pediatr Res 22:698, 1987; Trends Microbiol 9:50, 2001). C57/B16 mice are used, as the inflammatory response to P. aeruginosa infection of this moderately susceptible strain is a fair mimic of that seen in CF patients (Pediatr Pulmonol 30:413). Indeed, in C57/B16 mice, agar bead delivery of P. aeruginosa leads to histopathological changes, including bronchiectasis, similar to those found in patients with CF (Pediatr Pulmonol 30:413, 2000). This chronic model allows for the characterization of the effects of LX analogues on chronic, ongoing airway infection and inflammation using a model that is highly relevant to, and a reasonable mimic of, the CF airway.
Modifications were made in a previously described model (van Heeckeren, A. M. etal Lab Anim 36, 291, 2002). 6-8 week old female C57BL/6 mice were immunized in the dermis of the ear with heat-killed P. aeruginosa (mucoid strain M57-15) in incomplete Freund's adjuvant 10 days prior to P. aeruginosalagar bead challenge. Mice were challenged intratracheally (non-traumatically as previously described, Wills-Karp, M. et al. Science 282, 2258, 1998) with 3×10^4 P. aeruginosa (mucoid strain M57-15) entrapped in […] agarose beads. Beginning 1 day prior to such challenge, mice were treated with an LXA4 analogue (15-epi-16-[p-fluorophenoxy LXA4] methyl ester) by oral administration, through placing 10 μg/ml of the analogue in the drinking water (Gewirtz, A. T. et al. J Immunol 168, 5260, 2002), supplemented with a single daily intravenous dose of 1 μg by tail vein. Controls received trace volumes (identical to that administered to lipoxin analogue-treated mice) of ethanol in drinking water and intravenously. Mice were weighed daily. Five days after P. aeruginosa/agar bead challenge, mice were sacrificed, BAL was performed, and lungs were harvested for measurement of lung Pseudomonas burden and myeloperoxidase by standard techniques (van Heeckeren, A. M. et al Lab Anim 36, 291, 2002; Wills-Karp, M. et al. Science 282, 2258, 1998; Andrews, P. C. et al. Anal Biochem 127, 346, 1982). Animal care was provided in accordance with National Institutes of Health guidelines. This was done in order to model an additional immunological feature of individuals with cystic fibrosis and P. aeruginosa colonization/infection: potent adaptive immune responses, marked by anti-pseudomonal antibodies and T cells reactive with pseudomonal proteins.
C57/B16 mice were challenged intratracheally (non-traumatically as previously described [Science 282:2258, 1998; Nature Immunol 1:221,2000]) with 3×10^4 P. aeruginosa (mucoid strain M57-15) entrapped in agar beads (70-200 uM). […]

Compound: COC(=O)CCC[C@H](O)[C@H](O)/C=C/C=C/C=C\C=C\[C@H](O)COc1ccc(F)cc1 [(5S, 6R, 15S)-trihydroxy-16-(4-fluorophenoxy)-hexadeca-(7E, 9E, 11Z,13E)-tetraenoic acid methyl ester]
- P. aeruginosa-mediated IL-8 secretion [1]: inhibits
- P. aeruginosa-mediated IL-8 secretion ([1]; listed as LXA4 analogue): significantly inhibits
- weight loss ([2]; 10 μg/ml in drinking water plus 1 μg i.v. daily from 1 day before challenge, weighed daily, FIG. 3): less weight loss
- recovery of lost weight ([2]; 10 μg/ml in drinking water plus 1 μg i.v. daily, weighed daily, FIG. 3): earlier and more complete recovery of lost weight
- bronchoalveolar lavage total cell counts ([2]; BAL five days after challenge, FIG. 4A): significant suppression of total cell counts
- airway neutrophilia (BAL neutrophils) ([2]; BAL five days after challenge, FIG. 4B): significant inhibition of airway neutrophilia
- airway lymphocyte counts ([2]; BAL five days after challenge, FIG. 4C): significant increase in airway lymphocyte counts
- percentage of airway macrophages ([2]; BAL five days after challenge, FIG. 4D): increase in the percentage of airway macrophages
- neutrophil/lymphocyte ratio in the airway ([2]; BAL five days after challenge, FIG. 4E): significant decrease
- neutrophil/macrophage ratio in the airway ([2]; BAL five days after challenge, FIG. 4F): significant decrease
- whole lung P. aeruginosa burden ([2]; lungs harvested five days after challenge, quantitative microbiological techniques, FIG. 6): decrease in lung bacterial burden
- whole lung myeloperoxidase levels (neutrophil accumulation in the lung parenchyma) ([2]; lungs harvested five days after challenge, FIG. 5): significantly reduced neutrophil accumulation in the lung parenchyma
